# Measurements: patent publication US10189796B2, “[4-(1,3,3-trimethyl-2-oxo-3,4-dihydro-1H-quinoxalin-7-yl)phenoxy]ethyloxy compound or salt thereof” (SANTEN PHARMACEUTICAL CO., LTD., priority 2015, dated 2019)
# Experiments:
# [1] = tested on: VEGF-induced retinal elevated vascular permeability model of rabbits; assay: Retinal vascular permeability model evaluation test; type: in vivo, rabbit; conditions: 8% 50 μL/base agent A, intravitreal once; 4 weeks before VEGF induction
# Experimental: In order to evaluate the inhibitory effect of the present compounds on VEGF-induced retinal vascular permeability, the inhibitory effect of the present compound on retinal vascular permeability in a VEGF-induced retinal elevated vascular permeability model of rabbits was evaluated. Incidentally, this effect was evaluated by calculating a leaked amount of the fluorescent dye of the base agent administered group (non-induced group), a leaked amount of the fluorescent dye of the base agent administered group (control group) and a leaked amount of the fluorescent dye of the test compound administered group.
# To the test compound was added 0.01% Polysorbate 80/0.5% sodium carboxymethyl cellulose/PBS (hereinafter referred to as “base agent A”.), whereby 2% (W/V) or 8% (W/V) of the test compound suspension was prepared. Or else, to the test compound was added PEG400 (hereinafter referred to as “base agent B”.), whereby 6% (W/W) of the test compound solution was prepared.
# VEGF solution: humanVEGF165 was dissolved in PBS to prepare 50 μg/mL of VEGF solution.
# • 1) A mixed solution (1 mL/kg) of 5% ketamine hydrochloride injection solution and 2% xylazine hydrochloride injection solution with the ratio of 7:1 was intramuscularly administered to rabbits (Dutch male rabbits), and the rabbits were anesthetized. • 2) Tropicamide-phenylephrine hydrochloride ophthalmic solution (trade name: Midlin P) was eye dropped to maintain pupillary mydriasis, and then, the VEGF solution was intravitreally administered. Incidentally, PBS was intravitreally administered to the base agent administration group (non-induced group). • 3) Fluorescein was intravenously administered 2 days after intravitreal administration of VEGF. Two hours after the intravenous administration of fluorescein, an amount of the leaked fluorescent dye in the vitreous body was measured by using a fluorophotometer. (Test Method) • 1) One week before or 4 weeks before VEGF-induction, 50 μL of the test compound suspension (prepared by the base agent A) was intravitreally administered once, or 5 μL of the test compound solution (prepared by the base agent B) was intravitreally administered once. Incidentally, in the base agent administered group (non-induced group) and the base agent administered group (control group), the base agent A was used in place of the test compound suspension, or the base agent B was used in place of the test compound solution. • 2) Inhibition ratio of elevated retinal vascular permeability was calculated according to the following calculation formula. (Calculation Formula) Inhibitory ratio (%) on elevated retinal vascular permeability of the test compound administered group=100×{1−(average value of a leaked fluorescent dye amount in the test compound administered group−average value of a leaked fluorescent dye amount in the base agent administered group (non-induced group))/(average value of a leaked fluorescent dye amount in the base agent administered group (control group)−average value of a leaked fluorescent dye amount of the base agent administered group (non-induced group))}
# [2] = tested on: exorbital lacrimal gland-removed rat dry eye model; assay: Dry eye syndrome (dry eye) model evaluation test; type: in vivo; conditions: eye drop 5 μL four times a day
# [3] = tested on: exorbital lacrimal gland-removed rat dry eye model; assay: Dry eye syndrome (dry eye) model evaluation test; type: in vivo; conditions: eye drop 5 μL four times a day; remark: listed apart in the source
# Experimental: In order to evaluate the treatment effect of the present compounds on corneal disorder accompanied by dry eye syndrome (dry eye), a treatment effect on corneal disorder in an exorbital lacrimal gland-removed rat dry eye model was investigated. This model was prepared in accordance with the method of Fujihara, et al. (Invest. Ophthalmol. Vis. Sci., 42(1): 96-100 (2001)). Incidentally, this effect was scored according to the method of Murakami et al. (New Ophthalmologist 21(1): 87-90 (2004)), the extent of corneal disorder was scored and the improvement ratio was calculated from the corneal disorder score of the base agent administered group (control group), the corneal disorder score of the test compound administered group and the corneal disorder score of the normal rat.
# A base agent containing a general additive(s) was added to the test compound to prepare test compound suspensions with 0.03% (W/V) and 0.1% (W/V). In addition, a base agent was added to the commercially available drug A to prepare a diluted solution with 0.05% (V/V).
# • 1) By using male SD rats, somnopentyl was administered to the rats to apply them general anesthesia, exorbital lacrimal glands were removed, and corneal disorder was induced over 8 weeks thereafter. • 2) The test compound suspension was eye-dropped (instillation dose: 5 μL/time) to both eyes four times a day for 14 days. Incidentally, the base agent was similarly eye-dropped to the administered group (control group), and the commercially available drug A and its diluted solution were similarly eye-dropped. • 3) Fourteen days after the start of eye dropping, the cornea was stained with fluorescein. For each of the upper part, the middle part and the lower part of the cornea, scores of the degree of staining with fluorescein were determined according to the following criteria, and an average value of the total of the scores was calculated. Incidentally, 0.5 was set as an intermediate value between each score of 0, 1, 2 and 3. <<Judgement Standard>>
# 1: Dyeing is sparse, and the dyed portions of each dot are separated
# 2: Dyeing is a middle degree and part of the dotted dyed portions is adjacent
# 3: Dyeing is dense, and the dyed portions of each point are almost adjacent
# (Calculation Formula) Corneal disorder improvement ratio (%) of the test compound administered group=(Ao−Ax)/(Ao−An)×100 • Ao: Average value of corneal disorder score of the base agent administered group (control group) • Ax: Average value of corneal disorder score of the test compound administered group • An: Average value of corneal disorder score of normal rat (Test Result and Consideration)
SMILES,Inhibitory ratio (%) on elevated vascular permeability [1] [%],Corneal disorder improvement ratio (%) After 7 days eye dropping ([2]; 0.03%) [%],Corneal disorder improvement ratio (%) After 7 days eye dropping ([2]; 0.1%) [%],Corneal disorder improvement ratio (%) After 14 days eye dropping ([3]; 0.03%) [%],Corneal disorder improvement ratio (%) After 14 days eye dropping ([3]; 0.1%) [%]
"COc1cc(OC[C@H](CC#N)OP(=O)(O)O)ccc1-c1ccc2c(c1COc1cc(F)ccc1C)N(C)C(=O)C(C)(C)N2 [Compound 14-3, (S)-7-[4-(3-cyano-2-phosphonohydroxypropyl)oxy-2-methoxyphenyl]-8-(5-fluoro-2-methylphenoxymethyl)-1,3,3-trimethyl-3,4-dihydro-1H-quinoxalin-2-one]",89,,,,
"COc1cc(OC[C@H](C)OC(=O)CCC(=O)O)ccc1-c1ccc2c(c1COc1cc(F)ccc1C)N(C)C(=O)C(C)(C)N2 [Compound 12-1, (S)-7-[4-[2-(3-carboxypropanoyloxy)propyl]oxy-2-methoxyphenyl]-8-(5-fluoro-2-methylphenoxymethyl)-1,3,3-trimethyl-3,4-dihydro-1H-quinoxalin-2-one]",,33,42,48,58
"COc1cc(OC[C@H](C)OC(=O)C(O)CO)ccc1-c1ccc2c(c1COc1cc(F)ccc1C)N(C)C(=O)C(C)(C)N2 (stereo partly drawn) [Compound 13-1, (S)-7-[4-[2-(2,3-dihydroxypropanoyl)oxypropyl]oxy-2-methoxyphenyl]-8-(5-fluoro-2-methylphenoxymethyl)-1,3,3-trimethyl-3,4-dihydro-1H-quinoxalin-2-one]",,,38,,46
